Results: paper PMC9395488, “First-in-human study of IM156, a novel potent biguanide oxidative phosphorylation (OXPHOS) inhibitor, in patients with advanced solid tumors” (Investigational New Drugs, 2022)

System: patients with advanced solid tumors
Assay: First-in-human phase 1 dose-escalation study: safety, DLTs, adverse events
Assay type: in vivo
Excerpt: This multicenter first-in-human dose-escalation phase 1 study (clinicaltrials.gov identifier: NCT03272256) was designed to determine the MTD or RP2D and to evaluate the safety and tolerability of IM156. Secondary endpoints included PK characteristics, efficacy assessment (objective response rate [ORR], disease control rate [DCR], duration of response [DoR] and progression-free survival [PFS]). Furthermore, exploratory objectives included identification and profiling of IM156 metabolites, evaluations of exploratory PD markers of IM156, and evaluations of any potential relationship between putative biomarkers and safety/efficacy parameters of IM156. The study was conducted in accordance with Good Clinical Practice, the International Council for Harmonisation, and guidelines governing clinical study conduct and the ethical principles originating from the Declaration of Helsinki. The study was approved by each Institutional Review Board and patients provided written informed consent. Patients were enrolled at three sites in South Korea.
The initial dose and schedule of IM156 was chosen based on animal toxicology studies. […] IM156 was administered in the fasted state, with no food for at least 2 h before and 1 h after dosing.
Three DLT-evaluable patients were enrolled at each dose level. If there were no DLTs or other prohibitive adverse events (AEs), the Safety Committee was allowed to recommend escalation to the next highest dose level. If 1 DLT occurred in the first 3 DLT-evaluable patients, enrollment in that cohort was expanded to an additional 3 DLT-evaluable patients; if ≥ 2 DLTs were reported in a cohort, that dose was considered above the MTD.
Safety was assessed through vital signs, weight, laboratory assessments, physical examinations, electrocardiogram, and reporting of AEs as graded by the National Cancer Institute’s Common Terminology Criteria for Adverse Events v4.03 (NCI-CTCAE).
DLTs were defined as the following AEs if they were attributed as related to IM156: asymptomatic grade 4 neutropenia lasting for ≥ 5 days; febrile neutropenia, regardless of grade; grade 4 thrombocytopenia or grade 3 thrombocytopenia with bleeding; any grade ≥ 3 non-hematologic AE (except grade 3 hypertension and grade 3 nausea, vomiting or diarrhea for which proper measures for prevention and treatment were not implemented, and alopecia); blood lactate levels > 5 mmol; grade ≥ 2 AE prohibiting dosing of IM156 for ≥ 21 continuous days except for alterations in serum calcium or phosphorus levels. The safety analysis includes all patients who received at least one dose of study drug.
The safety population was defined as all patients who received at least one dose of IM156. The PK population was not defined in the protocol but included all patients with sufficient PK data to perform adequate PK modeling. The efficacy population included all patients who underwent at least one tumor imaging assessment while receiving IM156. Safety was assessed using descriptive statistics (e.g., DLTs, AEs, laboratory tests, physical examination, 12-lead ECG). The incidence and number of events were reported for the DLTs observed in Cycle 1 per dose group. […] Adverse events and TRAEs were standardized with the System Organ Class and the Preferred Term using the Medical Dictionary for Regulatory Activities v23.0. In addition, TEAEs, serious adverse events (SAEs), TEAE severity, and TEAEs leading to withdrawal were presented by dose group. Efficacy data were to be presented by Waterfall and Swim Lane plots. Time to event endpoints (e.g., DoR, PFS) were determined using Kaplan–Meier estimations with the median value for each endpoint summarized.

[1] = all dose level/grade cells not in own entries

NC(=Nc1ccc(OC(F)(F)F)cc1)N=C(N)N1CCCC1 [IM156]
82%: patients with gastrointestinal (GI) TRAEs, percent (all doses, N = 22)
146: total number of TEAEs reported (all doses, N = 22)
800 mg: recommended phase 2 dose (RP2D) (oral, QD)
0: TEAE Abdominal discomfort, dose level/grade cells without event [1] | TEAE Abdominal distension, dose level/grade cells without event [1] | TEAE Abdominal pain upper, dose level/grade cells without event [1] | TEAE Abdominal pain, dose level/grade cells without event [1] | TEAE Akathisia, dose level/grade cells without event [1] | TEAE Alanine aminotransferase increased, dose level/grade cells without event [1] | TEAE Ascites, dose level/grade cells without event [1] | TEAE Aspartate aminotransferase increased, dose level/grade cells without event [1] | TEAE Asthenia, dose level/grade cells without event [1] | TEAE Blood alkaline phosphatase increased, dose level/grade cells without event [1] | TEAE Blood creatinine increased, dose level/grade cells without event [1] | TEAE Blood lactic acid increased, dose level/grade cells without event [1] | TEAE Chest pain, dose level/grade cells without event [1] | TEAE Constipation, dose level/grade cells without event [1] | TEAE Cough, dose level/grade cells without event [1] | TEAE Decreased appetite, dose level/grade cells without event [1] | TEAE Diarrhoea, dose level/grade cells without event [1] | TEAE Dysesthesia, dose level/grade cells without event [1] | TEAE Fatigue, dose level/grade cells without event [1] | TEAE Gamma-glutamyltransferase increased, dose level/grade cells without event [1] | TEAE Gastritis, dose level/grade cells without event [1] | TEAE Gastrointestinal pain, dose level/grade cells without event [1] | TEAE Headache, dose level/grade cells without event [1] | TEAE Hemoptysis, dose level/grade cells without event [1] | TEAE Hyperkalaemia, dose level/grade cells without event [1] | TEAE Hypoalbuminaemia, dose level/grade cells without event [1] | TEAE Hypocalcemia, dose level/grade cells without event [1] | TEAE Ileus, dose level/grade cells without event [1] | TEAE Influenza like illness, dose level/grade cells without event [1] | TEAE Large intestinal obstruction, dose level/grade cells without event [1] | TEAE Lethargy, dose level/grade cells without event [1] | TEAE Nausea, dose level/grade cells without event [1] | TEAE Neutrophil count decreased, dose level/grade cells without event [1] | TEAE Obstruction gastric, dose level/grade cells without event [1] | TEAE Oedema peripheral, dose level/grade cells without event [1] | TEAE Oropharyngeal pain, dose level/grade cells without event [1] | TEAE Pain, dose level/grade cells without event [1] | TEAE Peripheral sensory neuropathy, dose level/grade cells without event [1] | TEAE Platelet count decreased, dose level/grade cells without event [1] | TEAE Pleural effusion, dose level/grade cells without event [1] | TEAE Proctalgia, dose level/grade cells without event [1] | TEAE Pyrexia, dose level/grade cells without event [1] | TEAE Toothache, dose level/grade cells without event [1] | TEAE Vomiting, dose level/grade cells without event [1] | Dose-limiting toxicity (dose level 1, 100 mg QOD oral, 3 patients) | Dose-limiting toxicity (dose level 2, 200 mg QOD oral, 3 patients) | Dose-limiting toxicity (dose level 3, 400 mg QOD oral, 3 patients) | Dose-limiting toxicity (dose level 4, 800 mg QOD oral, 3 patients) | Dose-limiting toxicity (dose level 5, 1,200 mg QOD oral, 3 patients) | Dose-limiting toxicity (dose level 6, 800 mg QD oral, 3 patients) | Dose-limiting toxicity (dose level 7, 1,200 mg QD oral, 4 patients)
3: TEAE Diarrhoea, grade 2 (Total, all dose levels) | TEAE Nausea, grade 3 (Total, all dose levels)
100%: patients with at least one TEAE, percent (all doses, N = 22)
4: TEAE Fatigue, grade 2 (Total, all dose levels)
41%: TRAE emesis (vomiting), percent of patients (all doses, N = 22)
2: TEAE Fatigue, grade 1 (Total, all dose levels) | TEAE Hypoalbuminaemia, grade 2 (Total, all dose levels)
1: TEAE Dysesthesia, grade 1 (Total, all dose levels) | TEAE Gamma-glutamyltransferase increased, grade 2 (Total, all dose levels) | TEAE Gamma-glutamyltransferase increased, grade 3 (Total, all dose levels) | TEAE Gastritis, grade 1 (Total, all dose levels) | TEAE Gastrointestinal pain, grade 1 (Total, all dose levels) | TEAE Gastrointestinal pain, grade 2 (Total, all dose levels) | TEAE Headache, grade 1 (Total, all dose levels) | TEAE Headache, grade 2 (Total, all dose levels) | TEAE Hemoptysis, grade 2 (Total, all dose levels) | TEAE Hyperkalaemia, grade 3 (Total, all dose levels) | TEAE Hypocalcemia, grade 2 (Total, all dose levels) | TEAE Ileus, grade 2 (Total, all dose levels) | TEAE Ileus, grade 3 (Total, all dose levels) | TEAE Influenza like illness, grade 1 (Total, all dose levels) | TEAE Large intestinal obstruction, grade 2 (Total, all dose levels) | TEAE Lethargy, grade 2 (Total, all dose levels) | TEAE Neutrophil count decreased, grade 4 (Total, all dose levels) | TEAE Obstruction gastric, grade 3 (Total, all dose levels) | TEAE Oedema peripheral, grade 2 (Total, all dose levels) | TEAE Oropharyngeal pain, grade 1 (Total, all dose levels) | TEAE Pain, grade 2 (Total, all dose levels) | TEAE Peripheral sensory neuropathy, grade 1 (Total, all dose levels) | TEAE Platelet count decreased, grade 1 (Total, all dose levels) | TEAE Pleural effusion, grade 2 (Total, all dose levels) | TEAE Proctalgia, grade 2 (Total, all dose levels) | TEAE Pyrexia, grade 2 (Total, all dose levels) | TEAE Toothache, grade 1 (Total, all dose levels) | TEAE Vomiting, grade 2 (Total, all dose levels) | SAEs attributed to IM156 (grade 3 nausea at 1,200 mg QOD)
14 patients: patients in whom nausea and emesis required anti-emetic medications (all doses, N = 22)
28: number of laboratory AEs (all doses)
14%: Grade 3 nausea (TRAE), percent of patients (all doses, N = 22) | TRAEs grade 3 or higher, percent of patients (all doses, N = 22)
68%: TRAE nausea, percent of patients (all doses, N = 22)
not reached: maximum tolerated dose (MTD) (per protocol, 100 to 1,200 mg QOD or QD)
18 patients: patients with gastrointestinal (GI) TRAEs (all doses, N = 22)
18%: TRAE fatigue, percent of patients (all doses, N = 22)
3 days: median number of days of interruption due to a TEAE (all doses)
7 patients: patients with a TEAE leading to dose interruption (all doses, N = 22)
8 patients: patients with SAEs (all doses, N = 22)
5: TEAE Nausea, grade 2 (Total, all dose levels) | TEAE Pyrexia, grade 1 (Total, all dose levels)
93%: laboratory AEs considered not related to IM156, percent (of 28 laboratory AEs)
26: laboratory AEs considered not related to IM156 (of 28 laboratory AEs)
10: TEAE Vomiting, grade 1 (Total, all dose levels)
22 patients: patients with at least one TEAE (all doses, N = 22)
Nine: number of SAEs reported (all doses)
9%: TRAE abdominal pain, percent of patients (all doses, N = 22) | TRAE constipation, percent of patients (all doses, N = 22) | TRAE blood lactate (lactic acid) increased, percent of patients (all doses, N = 22, Grade 1)
32%: patients with a TEAE leading to dose interruption, percent (all doses, N = 22)
2 to 11 days: days of interruption due to a TEAE, range (all doses)
86%: patients with TRAEs, percent (all doses, N = 22)
8: TEAE Nausea, grade 1 (Total, all dose levels)
64%: patients in whom nausea and emesis required anti-emetic medications, percent (all doses, N = 22)
19 patients: patients with TRAEs (all doses, N = 22)
46%: TRAE diarrhea, percent of patients (all doses, N = 22)
